From US4921871A, “Enolamides, pharmaceutical compositions and methods of use thereof for treating inflammation” (Warner-Lambert Company, priority 1987, dated 1990) come the findings set out here.

pIC50: −log10 of the molar value.

Test [1] addresses T1, human leukocyte 5-lipoxygenase (Homo sapiens, UniProt P09917).
T1 construct: endogenous in cells; host or cells: leukocytes from fresh human blood
T1 sequence (P09917 1-674): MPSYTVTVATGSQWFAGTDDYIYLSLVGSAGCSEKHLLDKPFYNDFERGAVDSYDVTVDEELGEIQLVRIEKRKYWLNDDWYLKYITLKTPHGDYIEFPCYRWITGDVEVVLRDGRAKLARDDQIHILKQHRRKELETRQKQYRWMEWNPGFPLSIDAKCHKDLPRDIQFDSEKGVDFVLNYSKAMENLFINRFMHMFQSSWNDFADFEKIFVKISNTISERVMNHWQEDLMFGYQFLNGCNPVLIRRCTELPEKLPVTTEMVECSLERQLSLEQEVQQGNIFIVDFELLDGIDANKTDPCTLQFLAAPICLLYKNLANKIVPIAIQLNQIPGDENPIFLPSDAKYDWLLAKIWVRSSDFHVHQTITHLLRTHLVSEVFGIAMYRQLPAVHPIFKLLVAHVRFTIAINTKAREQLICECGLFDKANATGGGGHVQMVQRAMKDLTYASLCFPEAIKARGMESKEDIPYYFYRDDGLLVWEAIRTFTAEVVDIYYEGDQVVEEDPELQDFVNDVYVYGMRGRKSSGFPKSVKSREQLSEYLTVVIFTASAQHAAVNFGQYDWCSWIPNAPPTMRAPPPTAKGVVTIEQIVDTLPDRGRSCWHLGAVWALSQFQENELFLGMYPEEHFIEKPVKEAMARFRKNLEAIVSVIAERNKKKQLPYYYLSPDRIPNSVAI
In words: 5-Lipoxygenase assay in human leukocytes, formation of 5-HETE (5LOA; 5LOA1 or 5LOA2 not specified). In kind it is cell-based. An excerpt: To Evaluate the Effect of Each Compounds as a 5-Lipoxygenase Inhibitor in Comparison to Standard Reference Agents in Human Leukocytes (5LOAl)
The purpose of this assay is to evaluate the activity of each compound as an inhibitor of human leukocyte 5-lipoxygenase.
Arachidonic acid and calcium ionophore A23l87 are obtained from Sigma (St. Louis, Mo.). Silica gel plates, GF are obtained from Analtech (Newark, Del.). Arachidonic acid, (1-^14 C) and 5-HETE (^3 H), 5 (S)-hydroxy-6-trans, 8,11,14-cis eicosatetraenoic acid, are obtained from New England Nuclear (Boston, Mass.). Six percent Dextran-70 in 0.9% NaCl is obtained from Cutter Labs (Berkeley, Calif.).
Fresh blood from normal adult men who had not received any drugs for at least the previous five days is obtained by the Community Research Clinic (WL/PD) using venipuncture and collected into heparinized vacuotainer tubes. To every 100 ml of pooled blood is added 25 ml of dextran solution (6% dextran -70 in 0.9% sodium chloride containing 3% dextrose) and this is mixed gently in a plastic cylinder. The mixture is left to stand at room temperature for at least 90 minutes. The upper layer which is rich in leukocytes and platelets is then carefully decanted into 50 ml plastic tubes and centrifuged at about 100×g for eight minutes in an IEC centrifuge and rotor number 269 (about 600 rpm). The supernatant fluid is discarded and the pellet is resuspended in 10 ml of 0.87% ammonium chloride for exactly two minutes. This procedure is to lyse completely contaminating red blood cells. Leukocytes are then separated by centrifugation for ten minutes. The pellet is washed three times by suspension in 20 ml PBS (sodium chloride, 7.1 g; Na2 HPO4, 1.15 g; KH2 PO4, 0.2 g, and KCl, 0.2 g/L) and centrifuged as before. The final pellet is suspended in PBS containing 0.87 mM CaCl2. Viability of the cells is then checked using trypan blue exclusion method and is found to be over 90%.
Leukocyte cells in suspension (0.98 ml) are incubated with or without test compounds for five minutes at 37° C. in a shaking water bath. At this time a 17 μl mixture is prepared per 1 ml of cell suspension: 100 mM arachidonic acid, 1 μl, 0.05 μCi ^14 C-arachidonic acid in 5 .rho.l; 1 mM calcium ionophore A23187, 10 μl (1). This mixture is added and the incubation continued for five minutes. The reaction is stopped by adding four volumes of absolute ethanol and the mixture is kept in ice for 30 minutes. The floculated precipitate is separated by centrifugation at about 37,000×g for 20 minutes (Beckman Instruments rotor number 40). The alcohol extract is taken to dryness under a stream of nitrogen and the residue is dissolved in 100-200 μl absolute ethanol. At the time any turbidity is removed by centrifugation. An aliquot (25-50 μl) is applied onto 20×20 cm silica gel TLC plate and developed using the following solvent system: diethyl ether, petroleum ether (2040° C.), acetic acid (50:50: 1 v/v). Zones of 1 cm apart are scraped from the TLC plate and transferred to mini-vials. Methanol (0.5 ml) is added to dissolve the radioactivity adsorbed to the silica gel and scintillation fluid (H.P., Beckman), 5 ml is then added and vials are counted in a liquid scintillation counter. A sample of ^3 H-5-HETE is applied and used for the identification of the formed 5-HETE.
Total radioactivity in the test as well as the control samples are normalized and the amount of 5-HETE present is calculated accordingly.
IC50 values are defined as the concentrations of test agents which caused a 50% inhibition of the formation of 5-HETE as compared to control and are determined by inspection of the concentration-response curves.
The formation of 5-HETE in human leukocytes is considered a measure of 5-lipoxygenase activity. The protocol is described in the following.
Fresh heparinized or EDTA treated human blood is mixed with 6% dextran-3% dextrose in isotonic saline in the ratio 0.25 ml dextran solution per 1.0 ml blood. […]

The subject of test [2] is Human Leukocyte Lipoxygenase. In words: Human Leukocyte Lipoxygenase Assay (LDA-H). The format is biochemical. Here is the method: Whole blood is collected from normal volunteers and spun in a refrigerated centrifuge for four minutes at 1°-6° C. at 3800 g. The buffy coat is manually separated and washed twice with chilled 0.83% NH4 Cl and centrifuged at 1000 RPM for ten minutes at 4° C. The white cell is suspended in culture media-EMEM supplemented with 6% Agamma human serum, tricine buffer, and neomycin and recentrifuged at 1000 g to yield a pellet containing the leukocytes used for the preparation of the acetone pentane powder.
The acetone-pentane powder is prepared utilizing a modification of the procedure reported for human platelet lipoxygenase. See Siegel, et al, Arachidonate Metabolism via Lipoxygenase and 12-L-hydro-peroxy-5 Eicosatetraenoic Acid Peroxidase Sensitive to Antiinflammatory Drugs, Proc. Natl. Acad. Sci., U.S.A. 77:308, 1980 and D. P. Wallach and V. R. Brown, A Novel Preparation of Human Platlet Lipoxygenase, Biochem. Biophys. Acta. 663:361, 1981. Buffy coat prepared above is resuspended in 5-7 volumes of cold 0.1M Tris buffer, pH 7.4 containing 0.154M NaCl. The suspension is centrifuged at 13,300 g for ten minutes at 4° C. The resultant pellet is retained, resuspended in five volumes of cold acetone, recentrifuged at 13,300 g and resuspended in five volumes of cold pentane. The pentane suspension is centrifuged for ten minutes at 13,300 g to give a pellet which is dried in the cold under vacuum with periodic pulverization. The dry powder is stable for several weeks when stored at -80° C.
Enzyme stock solution is prepared in the following manner. About 15 mg of the acetone-pentane powder is suspended in 4 ml of cold tris buffer (0.1M, pH 7.4), allowed to stand for five minutes, and homogenized thoroughly. The homogenate is sonicated three times for 15 seconds each time, diluted to 7 ml with cold tris buffer (0.1M, pH 7.4), and centrifuged at 4° C. for 60 minutes at 13,300 g. The supernatent is retained and diluted to a total of 10 ml with cold tris buffer (0.1M, pH 7.4) to give the stock enzyme solution. Additional dilutions of 2-50 fold are done as necessary to locate optimal enzyme reaction rate in the assay described below.
Substrate solution is prepared at 100 μM or 1.0 μM concentrations of arachidonic acid or linoleic acid in 0.1M tris buffer, pH 9.0 containing 20% ethanol.
The enzyme reaction is followed spectrophotometrically by the appearance of a conjugated diene product at 234 nm. The reaction is monitored at 24° C. using a Gilford Model 2600 spectrophotometer. […] The effects of inhibitors on the reaction are compared with control reactions run under indentical conditions. Routinely, each compounds of the present invention is incubated with the enzyme for five minutes prior to addition of substrate to initiate the reaction. Inhibition expressed as IC50 as molar concentration of the compound required to reduce reaction rate to 50% control.

`O=C(Nc1ccc(CCc2ccc(C(F)(F)F)cc2)cc1)C1CS(=O)(=O)c2ccccc2C1=O` (stereo not drawn) [Example 44]: the entries for the “5LOA, % Inhibition” value in test [1] (1.00 E -5 M), in test [1] (2.00 E -5 M) and in test [1] (4.00 E -5 M) were “+19.6%”, “+5.8%” and 30.0%, respectively. Besides, in test [2] (2.50 E -5 M), the “LDAH, % Inhibition” value turned out to be 0.0%.

On to `COc1ccc(CCc2ccc(NC(=O)C3CS(=O)(=O)c4ccccc4C3=O)cc2)cc1NC(C)=O` (stereo not drawn) [Example 50, N-[4-[2-(3-Acetylamino-4-methoxy)ethyl]phenyl]-3,4-dihydro-4-oxo-2H-1-benzothiopyran-3-carboxamide, 1,1-dioxide], for which, in test [2] (8.00 E -5 M), the “LDAH, % Inhibition” value is 0.0%.

Regarding `O=C(Nc1ccc(CCc2ccc3ccccc3c2)cc1)C1=C(O)c2ccccc2S(=O)(=O)C1` [Example 51, 4-Hydroxy-N-[4-[2-(2-naphthalenyl)ethyl]phenyl]-2H-1-benzothiopyran-3-carboxamide, 1,1-dioxide], the “LDAH, % Inhibition” value in test [2] (2.50 E -5 M) is 0.0%.

Regarding `CCCCCCc1ccc(NC(=O)C2CS(=O)(=O)c3ccccc3C2=O)cc1` (stereo not drawn) [Example 58, N-(4-Hexylphenyl)-3,4-dihydro-4-oxo-2H-1-benzothiopyran-3-carboxamide, 1-1-dioxide], in test [2] (8.00 E -5 M), the “LDAH, % Inhibition” value is recorded as 0.0%.

In the case of `CCCCCCCCc1ccc(NC(=O)C2CS(=O)(=O)c3ccccc3C2=O)cc1` (stereo not drawn) [Example 59, 3,4-Dihydro-N-(4-octylphenyl)-4-oxo-2H-1-benzothiopyran-3-carboxamide, 1,1-dioxide], the “LDAH, % Inhibition” value in test [2] (2.50 E -5 M) was found to be 0.0%.

As to `O=C(Nc1ccc(CCc2cccc(O)c2)cc1)C1CS(=O)(=O)c2ccccc2C1=O` (stereo not drawn) [Example 82], the “LDAH, % Inhibition” value in test [2] (8.00 E -5 M) is 0.0%.

Turning to `COc1ccc(CCc2ccc(NC(=O)C3Oc4cc5ccccc5cc4C3=O)cc2)cc1OC` (stereo not drawn) [Example 101, Naphtho[2,3-b]furan-2-carboxamide, N-[4-[2-(3,4-dimethoxyphenyl)ethyl]phenyl]-2,3-dihydroxy-3-oxo], the “LDAH, % Inhibition” value in test [2] (2.50 E -5 M) stood at 0.0%.

Turning to `COc1ccc(CCc2ccc(NC(=O)C(=O)c3oc4cc(OC)c(OC)cc4c3O)cc2)cc1OC` [Example 115, 2-Benzofuranacetamide, N-[4-[2-(3,4-dimethoxyphenyl)ethyl]phenyl]-3-hydroxy-5,6-dimethoxy-α-oxo], in test [2] (8.00 E -5 M), the “LDAH, % Inhibition” value is recorded as 0.0%.

In the case of `COc1ccc(CCc2ccc(NC(=O)C(=O)C3Oc4cc5ccccc5cc4C3=O)cc2)cc1OC` (stereo not drawn) [Example 117, Naptho[2,3-b]furan-2-acetamide, N-[4-[2-(3,4-dimethoxyphenyl)ethyl]phenyl]-2,3-dihydro-α,3dioxo], the “LDAH, % Inhibition” value in test [2] (2.50 E -5 M) came out at 0.0%.

As to `CCCCCCCCCCc1ccc(NC(=O)C(=O)c2oc3cc(OC)c(OC)cc3c2O)cc1` [Example 119, 2-Benzofuranacetamide, N-[4-decylphenyl]-3-hydroxy-5,6-dimethoxy-α-oxo], the pIC50 in test [2] (conjugated diene at 234 nm, pH 9.0, 24 °C, read-out: LDAH, concentration for 50% inhibition (IC)) was 8.10.

Take `O=C(Nc1ccc(CCc2ccc(O)c(O)c2)cc1)C1Oc2c(n(-c3ccccc3)c3ccc(O)cc23)C1=O` (stereo not drawn) [Example 163, 2H-Furo[3,2-b]indole-2-carboxamide, N-[4-[2-(3,4-dihydroxyphenyl)ethyl]phenyl]-3,4-dihydro-7-hydroxy-3-oxo-4-phenyl]: in test [2] (2.50 E -5 M), the “LDAH, % Inhibition” value is 0.0%.

On to `COc1ccc(CCc2ccc(NC(=O)C(=O)c3[nH]c4cc(C)c(C)cc4c3O)cc2)cc1OC` [Example 175, 1H-Indole-2-acetamide, N-[4-[2-(3,4-dimethoxyphenyl)ethyl]phenyl]-3-hydroxy-5,6-dimethyl-α-oxo], for which the figures for the “5LOA, % Inhibition” value in test [1] (1.00 E -5 M), in test [1] (2.00 E -5 M) and in test [1] (2.00 E -6 M) were 7.0%, 2.0% and 8.0%, respectively. Moreover, the “LDAH, % Inhibition” value in test [2] (2.50 E -5 M) worked out at 0.0%.
